Test results as given in ChEMBL document CHEMBL4041549, “Tetrahydroisoquinoline-7-carboxamide Derivatives as New Selective Discoidin Domain Receptor 1 (DDR1) Inhibitors” (ACS Med Chem Lett, 2017).
Active and inactive are the calls of the source. The rule behind the calls is not given here.

What was measured:
[1] = target: Mast/stem cell growth factor receptor Kit (Homo sapiens, UniProt P10721); assay: Inhibition of recombinant human His-tagged c-kit cytoplasmic domain (544 to 976 residues) expressed in baculovirus expression system using […] as substrate measured after 1 hr by FRET-based Z'-Lyte assay
Sequence of Mast/stem cell growth factor receptor Kit (P10721 whole entry, the tested form may be a part): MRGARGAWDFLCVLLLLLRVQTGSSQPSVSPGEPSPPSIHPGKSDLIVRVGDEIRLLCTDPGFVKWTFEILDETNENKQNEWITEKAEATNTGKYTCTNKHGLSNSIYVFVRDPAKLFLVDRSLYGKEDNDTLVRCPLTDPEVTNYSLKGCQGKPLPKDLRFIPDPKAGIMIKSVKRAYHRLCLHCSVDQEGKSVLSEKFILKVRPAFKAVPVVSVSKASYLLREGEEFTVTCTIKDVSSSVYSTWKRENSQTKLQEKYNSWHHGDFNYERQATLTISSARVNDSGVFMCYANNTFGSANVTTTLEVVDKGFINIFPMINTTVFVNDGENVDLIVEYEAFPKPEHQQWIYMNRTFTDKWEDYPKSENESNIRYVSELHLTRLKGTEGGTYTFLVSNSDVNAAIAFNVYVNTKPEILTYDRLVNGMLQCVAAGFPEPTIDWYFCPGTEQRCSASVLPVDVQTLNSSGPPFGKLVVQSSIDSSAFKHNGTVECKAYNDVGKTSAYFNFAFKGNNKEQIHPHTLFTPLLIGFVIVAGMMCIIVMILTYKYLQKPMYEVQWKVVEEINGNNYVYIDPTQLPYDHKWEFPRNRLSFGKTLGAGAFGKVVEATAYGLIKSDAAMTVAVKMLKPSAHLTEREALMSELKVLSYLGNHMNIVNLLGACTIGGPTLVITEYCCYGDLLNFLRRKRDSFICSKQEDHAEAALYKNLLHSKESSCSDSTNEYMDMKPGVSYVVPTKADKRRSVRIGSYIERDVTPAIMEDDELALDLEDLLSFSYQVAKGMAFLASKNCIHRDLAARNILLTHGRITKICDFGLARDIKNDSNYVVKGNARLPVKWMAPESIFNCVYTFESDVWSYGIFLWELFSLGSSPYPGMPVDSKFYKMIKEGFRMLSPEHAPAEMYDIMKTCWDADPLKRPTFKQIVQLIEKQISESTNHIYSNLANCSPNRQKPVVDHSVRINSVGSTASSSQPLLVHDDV

[2] = target: T1, Discoidin domain-containing receptor 2 (Homo sapiens, UniProt Q16832); assay: Inhibition of recombinant human GST-tagged DDR2 cytoplasmic domain expressed in baculovirus expression system using Fluorescein-Poly GAT as substrate measured after 1 hr by TR-FRET assay
T1 sequence (Q16832 whole entry): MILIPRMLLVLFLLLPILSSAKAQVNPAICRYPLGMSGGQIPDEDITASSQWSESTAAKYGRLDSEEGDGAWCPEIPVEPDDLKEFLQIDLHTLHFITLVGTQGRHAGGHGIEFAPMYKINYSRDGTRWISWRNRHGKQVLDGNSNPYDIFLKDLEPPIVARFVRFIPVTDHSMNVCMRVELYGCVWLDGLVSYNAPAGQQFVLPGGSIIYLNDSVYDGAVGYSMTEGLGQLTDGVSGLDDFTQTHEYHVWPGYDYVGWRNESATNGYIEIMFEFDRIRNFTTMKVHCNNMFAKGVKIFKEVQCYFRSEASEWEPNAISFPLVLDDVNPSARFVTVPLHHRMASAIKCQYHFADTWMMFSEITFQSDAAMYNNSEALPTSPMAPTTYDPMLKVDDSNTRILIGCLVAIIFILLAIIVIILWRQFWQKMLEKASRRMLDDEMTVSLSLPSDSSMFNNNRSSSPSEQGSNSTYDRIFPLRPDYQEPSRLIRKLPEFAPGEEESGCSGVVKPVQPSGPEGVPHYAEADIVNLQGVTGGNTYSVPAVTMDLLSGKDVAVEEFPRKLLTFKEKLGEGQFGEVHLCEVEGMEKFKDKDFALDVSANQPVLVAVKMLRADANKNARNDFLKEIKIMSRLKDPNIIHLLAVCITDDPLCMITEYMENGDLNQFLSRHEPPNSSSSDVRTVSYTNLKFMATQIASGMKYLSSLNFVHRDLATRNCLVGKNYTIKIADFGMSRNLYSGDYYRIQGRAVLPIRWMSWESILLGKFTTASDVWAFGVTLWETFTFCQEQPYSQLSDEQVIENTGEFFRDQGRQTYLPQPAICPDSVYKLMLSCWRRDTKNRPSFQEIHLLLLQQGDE

[3] = target: T2, Epithelial discoidin domain-containing receptor 1 (Homo sapiens, UniProt Q08345); assay: Inhibition of recombinant human GST-tagged DDR1 catalytic domain expressed in baculovirus expression system using Fluorescein-Poly GAT as substrate measured after 1 hr by TR-FRET assay
T2 sequence (Q08345 whole entry, the tested form may be a part): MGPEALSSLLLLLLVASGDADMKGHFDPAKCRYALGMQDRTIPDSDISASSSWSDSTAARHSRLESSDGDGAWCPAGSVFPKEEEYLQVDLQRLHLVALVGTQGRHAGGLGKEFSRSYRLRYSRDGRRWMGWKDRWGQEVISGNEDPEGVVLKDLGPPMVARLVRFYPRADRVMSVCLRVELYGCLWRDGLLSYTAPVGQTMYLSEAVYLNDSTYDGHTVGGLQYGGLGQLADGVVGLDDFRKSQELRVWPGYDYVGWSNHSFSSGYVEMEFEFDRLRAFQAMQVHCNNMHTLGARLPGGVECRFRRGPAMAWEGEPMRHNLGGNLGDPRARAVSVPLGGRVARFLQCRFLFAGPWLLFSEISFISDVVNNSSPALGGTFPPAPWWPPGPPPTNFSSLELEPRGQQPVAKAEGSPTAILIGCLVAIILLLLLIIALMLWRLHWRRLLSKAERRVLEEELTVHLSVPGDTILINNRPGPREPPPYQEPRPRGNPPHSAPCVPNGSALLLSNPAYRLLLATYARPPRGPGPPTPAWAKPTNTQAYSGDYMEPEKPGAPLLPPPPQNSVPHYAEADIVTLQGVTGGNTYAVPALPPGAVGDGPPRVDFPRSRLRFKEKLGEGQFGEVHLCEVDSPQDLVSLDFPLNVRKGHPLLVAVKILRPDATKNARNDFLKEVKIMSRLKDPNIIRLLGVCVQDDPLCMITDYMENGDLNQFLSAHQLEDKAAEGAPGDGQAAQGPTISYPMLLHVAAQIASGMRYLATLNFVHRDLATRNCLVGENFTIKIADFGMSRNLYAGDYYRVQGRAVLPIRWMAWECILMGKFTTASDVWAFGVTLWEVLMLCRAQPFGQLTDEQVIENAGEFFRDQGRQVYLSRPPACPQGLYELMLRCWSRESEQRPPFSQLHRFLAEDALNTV

Bcr/Abl fusion protein = Bcr/Abl fusion protein (Homo sapiens, UniProt P00519); assay: Inhibition of recombinant human full length His-tagged Bcr-Abl fusion protein cytoplasmic domain expressed in baculovirus expression system using tyrosine-2 as substrate measured after 1 hr by FRET-based Z'-Lyte assay
Sequence of Bcr/Abl fusion protein (P00519 whole entry, the tested form may be a part): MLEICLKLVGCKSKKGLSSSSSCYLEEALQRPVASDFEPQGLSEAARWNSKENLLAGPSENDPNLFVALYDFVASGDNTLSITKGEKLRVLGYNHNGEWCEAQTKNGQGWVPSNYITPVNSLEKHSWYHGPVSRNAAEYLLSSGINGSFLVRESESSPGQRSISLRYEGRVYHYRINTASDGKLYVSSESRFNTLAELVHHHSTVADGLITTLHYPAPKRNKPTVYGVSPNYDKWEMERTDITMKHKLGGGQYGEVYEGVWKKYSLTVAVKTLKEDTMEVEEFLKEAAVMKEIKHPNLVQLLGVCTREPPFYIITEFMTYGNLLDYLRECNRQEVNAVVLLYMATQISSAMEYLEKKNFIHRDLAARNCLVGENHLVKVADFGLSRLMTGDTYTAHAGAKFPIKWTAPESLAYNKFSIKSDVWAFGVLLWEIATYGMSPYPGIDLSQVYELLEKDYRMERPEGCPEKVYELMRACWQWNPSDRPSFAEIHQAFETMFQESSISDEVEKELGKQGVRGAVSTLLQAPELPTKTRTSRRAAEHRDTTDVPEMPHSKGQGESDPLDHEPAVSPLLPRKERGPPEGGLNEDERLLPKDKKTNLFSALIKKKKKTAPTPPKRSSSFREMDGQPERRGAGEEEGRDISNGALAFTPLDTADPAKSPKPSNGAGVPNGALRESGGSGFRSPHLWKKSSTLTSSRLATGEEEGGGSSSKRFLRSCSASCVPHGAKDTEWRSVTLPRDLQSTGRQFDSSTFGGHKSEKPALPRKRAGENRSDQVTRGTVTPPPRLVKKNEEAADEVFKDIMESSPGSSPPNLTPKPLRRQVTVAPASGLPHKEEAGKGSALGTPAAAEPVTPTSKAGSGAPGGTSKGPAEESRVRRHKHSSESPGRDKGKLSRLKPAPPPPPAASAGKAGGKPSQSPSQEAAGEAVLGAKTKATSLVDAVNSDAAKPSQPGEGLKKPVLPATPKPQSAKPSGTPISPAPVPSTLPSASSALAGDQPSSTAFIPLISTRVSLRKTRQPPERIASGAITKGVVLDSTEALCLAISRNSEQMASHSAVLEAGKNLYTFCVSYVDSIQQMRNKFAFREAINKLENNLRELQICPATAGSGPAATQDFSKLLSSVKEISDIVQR
Sequence of Bcr/Abl fusion protein (P11274 whole entry, further chain, the tested form may be a part): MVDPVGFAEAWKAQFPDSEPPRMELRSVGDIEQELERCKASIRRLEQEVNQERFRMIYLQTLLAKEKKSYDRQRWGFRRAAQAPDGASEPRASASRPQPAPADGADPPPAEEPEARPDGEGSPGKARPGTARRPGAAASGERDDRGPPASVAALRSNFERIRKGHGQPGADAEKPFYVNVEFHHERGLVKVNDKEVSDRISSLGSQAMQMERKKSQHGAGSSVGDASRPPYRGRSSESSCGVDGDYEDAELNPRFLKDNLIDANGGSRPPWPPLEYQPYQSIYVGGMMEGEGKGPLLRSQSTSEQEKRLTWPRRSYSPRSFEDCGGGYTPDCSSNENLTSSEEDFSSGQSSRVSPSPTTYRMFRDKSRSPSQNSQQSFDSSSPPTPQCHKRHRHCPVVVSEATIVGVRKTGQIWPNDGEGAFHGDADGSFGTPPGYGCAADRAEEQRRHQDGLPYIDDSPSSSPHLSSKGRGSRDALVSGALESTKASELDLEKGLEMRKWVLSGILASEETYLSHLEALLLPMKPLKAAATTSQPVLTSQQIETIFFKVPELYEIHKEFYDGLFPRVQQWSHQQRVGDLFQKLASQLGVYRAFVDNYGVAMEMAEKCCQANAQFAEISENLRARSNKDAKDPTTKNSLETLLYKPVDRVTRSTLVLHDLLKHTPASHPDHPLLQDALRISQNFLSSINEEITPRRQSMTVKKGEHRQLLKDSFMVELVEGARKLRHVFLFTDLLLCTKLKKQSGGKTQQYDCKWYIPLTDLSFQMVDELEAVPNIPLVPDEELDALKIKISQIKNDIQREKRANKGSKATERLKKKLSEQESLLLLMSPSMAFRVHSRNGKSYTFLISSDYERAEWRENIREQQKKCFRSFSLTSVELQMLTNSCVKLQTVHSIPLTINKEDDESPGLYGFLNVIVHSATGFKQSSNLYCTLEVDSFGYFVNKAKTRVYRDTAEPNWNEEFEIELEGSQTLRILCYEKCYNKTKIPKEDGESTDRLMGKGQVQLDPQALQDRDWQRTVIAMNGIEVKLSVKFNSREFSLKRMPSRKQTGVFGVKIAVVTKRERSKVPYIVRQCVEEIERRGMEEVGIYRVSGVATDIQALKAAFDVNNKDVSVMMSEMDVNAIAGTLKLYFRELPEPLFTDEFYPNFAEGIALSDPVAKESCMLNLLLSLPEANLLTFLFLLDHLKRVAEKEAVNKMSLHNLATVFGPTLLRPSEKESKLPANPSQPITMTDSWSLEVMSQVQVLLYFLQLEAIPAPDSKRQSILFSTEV

Mus musculus [4] = assay: Anti-inflammatory activity in LPS-induced C57BL/6 mouse acute lung injury model assessed as reduction in pathological changes at 20 to 40 mg/kg, po bid pretreated for 7 days followed LPS challenge measured after 6 hrs hematoxylin and eosin staining based microscopy; format: functional, organism-based
Mus musculus [5] = assay: Anti-inflammatory activity in po dosed LPS-induced C57BL/6 mouse acute lung injury model assessed as reduction in total number of cells in bronchoalveolar lavage fluid pretreated for 7 days followed by LPS challenge measured after 6 hrs by cell counter; format: functional, organism-based
[6] = target: NT-3 growth factor receptor (Homo sapiens) (UniProt Q16288); assay: Binding affinity to human DNA-tagged TrkC measured after 1 hr by quantitative PCR analysis
[7] = target: T2, Epithelial discoidin domain-containing receptor 1; assay: Binding affinity to human DNA-tagged DDR1 expressed in bacterial expression system measured after 1 hr by quantitative PCR analysis
Peritoneal macrophage [8] = assay: Anti-inflammatory activity in C57BL/6 mouse primary peritoneal macrophages assessed as inhibition of LPS-induced IL-6 production by ELISA method; format: functional, cell-based
Mus musculus [9] = assay: Anti-inflammatory activity in LPS-induced C57BL/6 mouse acute lung injury model assessed as reduction in lung wet/dry ratio at 20 to 40 mg/kg, po bid pretreated for 7 days followed by LPS challenge measured after 6 hrs; format: functional, organism-based
Peritoneal macrophage [10] = assay: Anti-inflammatory activity in C57BL/6 mouse primary peritoneal macrophages assessed as inhibition of LPS-induced TNF-alpha production by ELISA method; format: functional, cell-based
Mus musculus [11] = assay: Anti-inflammatory activity in po dosed LPS-induced C57BL/6 mouse acute lung injury model assessed as reduction in total protein concentration in bronchoalveolar lavage fluid pretreated for 7 days followed by LPS challenge measured after 6 hrs; format: functional, organism-based
[12] = target: T2, Epithelial discoidin domain-containing receptor 1; conditions: 1 uM
[13] = target: BDNF/NT-3 growth factors receptor (Homo sapiens) (UniProt Q16620); assay: Binding affinity to human DNA-tagged TrkB measured after 1 hr by quantitative PCR analysis
Sequence of BDNF/NT-3 growth factors receptor (Homo sapiens) (Q16620 32-822 limits assumed): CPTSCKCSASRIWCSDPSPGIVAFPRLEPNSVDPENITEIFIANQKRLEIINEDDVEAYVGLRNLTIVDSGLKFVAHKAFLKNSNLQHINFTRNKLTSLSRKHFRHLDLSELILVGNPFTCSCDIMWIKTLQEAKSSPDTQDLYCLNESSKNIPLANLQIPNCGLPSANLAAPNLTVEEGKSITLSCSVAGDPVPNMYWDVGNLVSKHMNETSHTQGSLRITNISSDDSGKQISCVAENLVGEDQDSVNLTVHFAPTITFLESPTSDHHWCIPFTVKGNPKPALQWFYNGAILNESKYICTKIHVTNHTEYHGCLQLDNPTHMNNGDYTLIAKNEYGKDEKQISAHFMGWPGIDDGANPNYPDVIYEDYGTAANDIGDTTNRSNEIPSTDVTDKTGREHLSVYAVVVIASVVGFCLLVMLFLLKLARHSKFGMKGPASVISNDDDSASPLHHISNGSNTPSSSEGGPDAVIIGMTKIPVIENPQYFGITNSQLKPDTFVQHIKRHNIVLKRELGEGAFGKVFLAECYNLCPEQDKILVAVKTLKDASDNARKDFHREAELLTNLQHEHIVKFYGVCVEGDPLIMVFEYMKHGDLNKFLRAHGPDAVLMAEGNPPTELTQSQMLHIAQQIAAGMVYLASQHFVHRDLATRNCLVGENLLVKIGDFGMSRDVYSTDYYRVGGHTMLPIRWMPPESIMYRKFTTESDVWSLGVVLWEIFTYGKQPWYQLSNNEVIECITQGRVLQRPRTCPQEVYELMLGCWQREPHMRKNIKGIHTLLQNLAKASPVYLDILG

| SMILES | IC50 [1] [µM] | IC50 [2] [nM] | IC50 [3] [nM] | IC50 (Bcr/Abl fusion protein) [µM] | other results |
| --- | --- | --- | --- | --- | --- |
| C[C@@H]1CN(c2cncnc2)Cc2cc(C(=O)Nc3cc(CN4CCCN(C)CC4)cc(C(F)(F)F)c3)ccc21 | > 10 | 2600 | 167 | > 10 | – |
| CC1CN(c2cncnc2)Cc2cc(C(=O)Nc3cc(C(F)(F)F)ccc3CN3CCN(C)CC3)ccc21 (stereo unspecified) | > 10 | > 10000 | 10000 | > 10 | – |
| C[C@H]1CN(c2cncnc2)Cc2cc(C(=O)Nc3cc(CN4CCN(C)CC4)cc(C(F)(F)F)c3)ccc21 | > 10 | – | – | – | – |
| CN1CCN(Cc2cc(NC(=O)c3ccc4c(c3)CN(c3cncnc3)CC4(C)C)cc(C(F)(F)F)c2)CC1 | > 10 | – | – | > 10 | – |
| CCN1CCN(Cc2cc(NC(=O)c3ccc4c(c3)CN(c3cncnc3)CC4C)cc(C(F)(F)F)c2)CC1 (stereo unspecified) | > 10 | 944 | 71.1 | > 10 | – |
| CCc1ccc(C(=O)Nc2cc(CN3CCN(C)CC3)cc(C(F)(F)F)c2)cc1C#Cc1ccc2ccnn2c1 | 2.5 | 203 | 13.1 | 0.414 | – |
| CC1CN(c2cncnc2)Cc2cc(C(=O)Nc3cc(CN4CCOCC4)cc(C(F)(F)F)c3)ccc21 (stereo unspecified) | > 10 | – | – | > 10 | – |
| CN1CCN(Cc2cc(NC(=O)c3ccc4c(c3)CN(Cc3cncnc3)CC4)cc(C(F)(F)F)c2)CC1 | > 10 | > 10000 | > 10000 | > 10 | – |
| CN1CCN(Cc2cc(NC(=O)c3ccc4c(c3)CN(c3cncnc3)CC4)cc(C(F)(F)F)c2)CC1 | > 10 | – | – | – | – |
| C[C@H]1CN(c2cncnc2)Cc2cc(C(=O)Nc3cc(CN4CCCN(C)CC4)cc(C(F)(F)F)c3)ccc21 | > 10 | 255 | 6.6 | 8.1 | Activity (Mus musculus [4]): Active; Activity (Mus musculus [5]): Dose-dependent effect; Activity [6]: Active; Kd [7]: 2.2 nM; inhibition (Peritoneal macrophage [8]): Dose-dependent effect; Activity (Mus musculus [9]): Active; inhibition (Peritoneal macrophage [10]): Dose-dependent effect; Activity (Mus musculus [11]): Dose-dependent effect; inhibition [12]: 99.9%; Activity [13]: Active |
| CN1CCN(Cc2cc(NC(=O)c3ccc4c(c3)CN(c3ccncn3)CC4)cc(C(F)(F)F)c2)CC1 | > 10 | > 10000 | > 10000 | > 10 | – |
| CC1CN(c2cncnc2)Cc2cc(C(=O)Nc3cc(N4CCN(C)CC4)cc(C(F)(F)F)c3)ccc21 (racemic) | > 10 | 2100 | – | > 10 | – |
| CCc1cc(CN2CCN(C)CC2)cc(NC(=O)c2ccc3c(c2)CN(c2cncnc2)CC3C)c1 (racemic) | > 10 | – | – | > 10 | – |
| CC1CN(c2cncnc2)Cc2cc(C(=O)Nc3cc(CN4CCN(C)CC4)cc(C4CC4)c3)ccc21 (racemic) | > 10 | – | – | 9.9 | – |
| CC1CN(c2cncnc2)Cc2cc(C(=O)Nc3cc(CN4CCSCC4)cc(C(F)(F)F)c3)ccc21 (racemic) | > 10 | – | – | > 10 | – |
| CC1CN(c2cncnc2)Cc2cc(C(=O)Nc3cc(CN4CCCC4)cc(C(F)(F)F)c3)ccc21 (racemic) | > 10 | 2600 | – | > 10 | – |

| SMILES | IC50 [1] [µM] | IC50 [2] [nM] | IC50 [3] [nM] | IC50 (Bcr/Abl fusion protein) [µM] | other results |
| --- | --- | --- | --- | --- | --- |
| CC1CN(c2cncnc2)Cc2cc(C(=O)Nc3cc(CN4CCN(C)CC4)cc(-c4ccccc4)c3)ccc21 (racemic) | > 10 | – | – | 10 | – |
| CC1CN(c2cncnc2)Cc2cc(C(=O)Nc3cc(CN4CCCN(C)CC4)cc(C(F)(F)F)c3)ccc21 (racemic) | > 10 | – | – | > 10 | – |
| CC1CN(c2cncnc2)Cc2cc(C(=O)Nc3cc(CN4CCN(C)CC4)cc(C(C)(C)C)c3)ccc21 (racemic) | > 10 | – | – | 4.3 | – |
| CC1CN(c2cncnc2)Cc2cc(C(=O)Nc3cc(CN4CCN(C)CC4)cc(C4CCCCC4)c3)ccc21 (racemic) | > 10 | – | 123 | > 10 | – |
| CC1CN(c2cncnc2)Cc2cc(C(=O)Nc3cccc(CN4CCN(C)CC4)c3)ccc21 (racemic) | > 10 | > 10000 | > 10000 | > 10 | – |
| CC1CN(c2cncnc2)Cc2cc(C(=O)Nc3cccc(C(F)(F)F)c3)ccc21 (racemic) | > 10 | – | – | > 10 | – |
| CC1CN(c2cncnc2)Cc2cc(C(=O)Nc3cc(CN(C)C)cc(C(F)(F)F)c3)ccc21 (racemic) | > 10 | – | – | > 10 | – |
| CC1CN(c2cncnc2)Cc2cc(C(=O)Nc3cc(CN4CCN(C)CC4)cc(C(F)(F)F)c3)ccc21 (racemic) | > 10 | – | – | – | – |
| CC1CN(c2cncnc2)Cc2cc(C(=O)Nc3cc(CN4CCCCC4)cc(C(F)(F)F)c3)ccc21 (racemic) | > 10 | – | – | > 10 | – |
| CC1CN(c2cncnc2)Cc2cc(C(=O)Nc3ccc(CN4CCN(C)CC4)c(C(F)(F)F)c3)ccc21 (racemic) | > 10 | 354 | – | 0.547 | – |
| CC(C)c1cc(CN2CCN(C)CC2)cc(NC(=O)c2ccc3c(c2)CN(c2cncnc2)CC3C)c1 (racemic) | > 10 | 682 | 49.9 | 8.7 | – |
| CC1Cc2ccc(C(=O)Nc3cc(CN4CCN(C)CC4)cc(C(F)(F)F)c3)cc2CN1c1cncnc1 (racemic) | > 10 | – | – | > 10 | – |
| CC1CN(c2cncnc2)Cc2cc(C(=O)Nc3cc(CCN4CCN(C)CC4)cc(C(F)(F)F)c3)ccc21 (racemic) | > 10 | 1500 | 80.7 | > 10 | – |
| CC1CN(c2cncnc2)Cc2cc(C(=O)Nc3cc(CN4CCN(C5CCCCC5)CC4)cc(C(F)(F)F)c3)ccc21 (racemic) | > 10 | 846 | – | > 10 | – |
| CC1CN(c2cncnc2)Cc2cc(NC(=O)Nc3cc(CN4CCN(C)CC4)cc(C(F)(F)F)c3)ccc21 (racemic) | > 10 | > 10000 | > 10000 | > 10 | – |
